Measured values taken from patent US8685929B2, “Detecting CYP24 expression level as a marker for predisposition to cancer” (The Regents of the University of California, priority 1999, dated 2014).

Experiments:
[1] = test system: CYP24 gene expression in BT474 cell line; assay: RT-PCR of CYP24 gene expression in the BT474 cell line with induction by 1,25-dihydroxyvitamin D3; format: cell-based, human; details: BT474 cells, 10^-8M 1,25-dihydroxyvitamin D3 added to the culture medium; FIG. 3C
Protocol: (§1) FIG. 3 illustrates expression of CYP24, VDR and ZNF217 genes in human breast cancer cell lines and tumors with and without induction by 1,25-dihydroxyvitamin D3 evaluated by RT-PCR. (a) Time course of induction of CYP24 gene expression in MCF7 breast cancer cells incubated with 10^−8M 1,25-dihydroxyvitamin D3 and vehicle control (ethanol, EtOH). (b) Gene expression in two breast cancer tumors, S21 and S59. (c) Gene expression in the BT474 cell line. Cells were incubated with 10^−8M 1,25-dihydroxyvitamin D3, as described in (a).
(§2) Previously, CYP24 had been discounted as a candidate oncogene because it was not found to be transcribed in the breast cancer cell line, BT474 (Collins et al. (1998) Proc. Natl. Acad. Sci. USA 95: 8703-8708). However, re-evaluation of expression of CYP24 in cell lines and tumors was warranted because of its position at the peak of the copy number profile and because of the existing knowledge of its function. Therefore we examined expression levels of CYP24 and the vitamin D receptor (VDR), which controls CYP24 expression by RT-PCR using the primers listed in Table 1. […] Furthermore, expression of CYP24 and VDR was detected in two breast tumors S21 and S59 (FIG. 3B). […] Only low level expression of VDR was found in this cell line, most likely accounting for the failure to detect expression of CYP24 in BT474 without addition of 1,25-dihydroxyvitamin-D3. […]

[2] = test system: CYP24 gene expression in MCF7 breast cancer cells; assay: RT-PCR of CYP24 gene expression in MCF7 breast cancer cells with induction by 1,25-dihydroxyvitamin D3; format: cell-based, human; details: MCF7 cells incubated with 10^-8M 1,25-dihydroxyvitamin D3 vs vehicle control (ethanol); FIG. 3A
Protocol: as §1, §2

C=C1/C(=C\C=C2/CCC[C@]3(C)[C@@H]([C@H](C)CCCC(C)(C)O)CC[C@@H]23)C[C@@H](O)C[C@@H]1O [1,25-dihydroxyvitamin-D3]
expression of CYP24 (RT-PCR) [1]: CYP24 expression was not detected without addition of 1,25-dihydroxyvitamin-D3
expression of CYP24 (RT-PCR) [2]: higher levels of expression of CYP24 were induced
